The values below are quoted from earlier work in patent US7956061B2, “Bicyclic pyrimidines as dipeptidyl peptidase-IV inhibitors for the treatment or prevention of diabetes” (Merck Sharp & Dohme Corp., priority 2005, dated 2011).

For one data set, the system named is cardiac allograft. Particulars: rats; Transplantation, 63: 1495-1500 (1997).
Another data set deals with hematopoiesis. Particulars: mouse, cyclophosphamide-induced neutropenia; WO 99/56753.
The next data set addresses T1, DPP-IV (Homo sapiens, UniProt P27487).
T1 construct: GRF is rapidly degraded in plasma to GRF[3-44]
Conditions: plasma.

T1 sequence (P27487 39-766 limits assumed, species assumed): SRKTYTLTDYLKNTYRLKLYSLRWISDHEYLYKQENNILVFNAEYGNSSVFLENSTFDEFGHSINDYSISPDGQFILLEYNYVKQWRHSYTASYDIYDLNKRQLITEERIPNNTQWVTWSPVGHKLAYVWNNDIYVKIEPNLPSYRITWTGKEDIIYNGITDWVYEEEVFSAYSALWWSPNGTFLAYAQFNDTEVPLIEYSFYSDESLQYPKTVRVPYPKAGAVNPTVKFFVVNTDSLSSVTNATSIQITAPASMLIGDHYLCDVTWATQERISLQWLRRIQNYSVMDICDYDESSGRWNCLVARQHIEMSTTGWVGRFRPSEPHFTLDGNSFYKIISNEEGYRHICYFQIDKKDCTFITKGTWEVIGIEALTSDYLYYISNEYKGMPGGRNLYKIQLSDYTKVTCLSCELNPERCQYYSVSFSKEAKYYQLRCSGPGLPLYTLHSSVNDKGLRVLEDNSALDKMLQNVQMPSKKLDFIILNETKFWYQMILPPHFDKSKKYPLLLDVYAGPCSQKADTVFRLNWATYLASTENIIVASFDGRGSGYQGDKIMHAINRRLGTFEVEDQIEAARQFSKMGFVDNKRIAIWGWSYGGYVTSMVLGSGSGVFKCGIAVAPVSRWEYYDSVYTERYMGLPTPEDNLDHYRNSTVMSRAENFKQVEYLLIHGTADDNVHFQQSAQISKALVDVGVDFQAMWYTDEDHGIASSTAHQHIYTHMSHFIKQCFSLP

For the compound `CC(C)N1CCC(c2ccccc2)(c2ccccc2)CC1` [Prodipine, Pro-Pro-diphenyl-phosphonate], in the data set with cardiac allograft, the cardiac allograft survival result is reported as “double cardiac allograft survival in rats from day 7 to day 14”. As for `CC(C)[C@H](N)C(=O)N1CCC[C@H]1B(O)O` [Val-Boro-Pro], the effect on hematopoiesis result with hematopoiesis is recorded as “stimulated hematopoiesis”. Take diprotin A: the “effect on degradation of GRF to GRF[3-44]” value at DPP-IV is “prevented”.
